Source: patent publication US9132111B2, “Topical antimicrobial compositions” (priority 2011, dated 2015)

Key:
Type in all cases: cell-based
[1] = test system: Candida albicans ATCC 10231; experiment: Bactericidal effect of antimicrobial composition against Candida albicans
Protocol: 1) Testing strain: Candida albicans ATCC 10231, the 5-6 generations; provide by the “Reserve Center of Chinese Microbial Reservation Committee”.
The testing sample was diluted for 2, 4, 8, 16, 32, 64, 128 and […] times using standard hard water, then reacted with ATCC 10231 for 1 min, 5 min, 10 min.
(§1) 2. Testing Methods and Standards:
(§2) <<Technical Standard for Disinfection>> (2002 Edition)
(§3) GB15979-2002 <<Technical standard for testing disinfection product>> “Procedures for testing bactericide effect”
The bactericidal effect of antimicrobial composition against Candida albicans ATCC10231 at 20±1° C. temperature is shown in table 6.

[2] = test system: Staphylococcus aureus ATCC6538; experiment: Bactericide effect of antimicrobial composition against Staphylococcus aureus
Protocol: 1) Testing strain: Staphylococcus aureus ATCC6538, 5-6th generations, provided by the reserve center of China microbial reservation committee.
The testing sample was diluted for 2, 4, 8, 16, 32, 64, 128 and […] folds using standard hard water, then reacted with ATCC6538 for 1 min, 5 min, 10 min.
as §1, §2, §3

Eschetichia coli 8099 = experiment: Bactericide effect of antimicrobial composition against Eschetichia coli
Protocol: 1) Testing strain: Eschetichia coli 8099, the 5-6 generations were used; provide by the “Reserve Center of Chinese Microbial Reservation Committee”.
The testing sample was diluted for 2, 4, 8, 16, 32, 64, 128 and 256 folds using standard hard water, then reacted with Eschetichia coli 8099 for 1 min, 5 min, 10 min.
as §1, §2, §3

N,N-di-n-decyl-N,N-dimethyl-ammonium 5-oxopyrrolidine-2-carboxylate [DDAPC]
minimum inhibiting concentrations ([1]; reacted 1 min): 0.0016%
minimum inhibiting concentrations ([1]; reacted 5 min): 0.0008%
minimum inhibiting concentrations ([1]; reacted 10 min): 0.0004%
minimum inhibiting concentrations ([2]; reacted 1 min): 0.0016%
minimum inhibiting concentrations ([2]; reacted 5 min): 0.0004%
minimum inhibiting concentrations ([2]; reacted 10 min): 0.0004%
minimum inhibiting concentrations (Eschetichia coli 8099; reacted 1 min): 0.006%
minimum inhibiting concentrations (Eschetichia coli 8099; reacted 5 min): 0.003%
minimum inhibiting concentrations (Eschetichia coli 8099; reacted 10 min): 0.003%
